Measured values from publication PMC7069095, “A cell-permeable peptide-based PROTAC against the oncoprotein CREPT proficiently inhibits pancreatic cancer” (Theranostics, 2020).
Non-standard residues stand in square brackets, D forms with d. Residues, ends and D or L forms follow the SMILES beside them. No end group written: not given here. *: point of attachment. FITC = O=C1OC2(c3ccc(O)cc3Oc3cc(O)ccc32)c2ccc(NC(=S)*)cc21; Hyp = O=C(O)[C@@H]1C[C@@H](O)CN1; Cbz = O=C(OCc1ccccc1)*; Ahx = NCCCCCC(=O)O

How the values were obtained:
Panc-1 cells = experiment: Confocal fluorescence imaging of FITC labeled peptides in cells; format: cell-based; settings: confocal microscope, 10 μM FITC labeled peptides, Panc-1 cells
Description: To examine whether PRTC could permeate into pancreatic cancer cells, we synthesized fluorescein isothiocyanate (FITC) labeled PRTC, PRTC-m, PRTC-v, PRTC-r (PRTC without RRRRK) as well as TAT (a widely used cell penetrating peptide, as a positive control).
Figure 3 Identification of the permeability of PRTC in Panc-1 cells. (A) Entry of FITC- labeled peptides into Panc-1 cells tested by flow cytometry. FITC-TAT is the positive control. Measurements were performed in triplicate. (B) Quantification of cellular uptake of Panc-1 cells treated with different concentrations of FITC-PRTC. (C) Confocal microscope images of Panc-1 cells treated with 10 μM FITC labeled peptides. Scale bars, 10 μm. (D) Confocal microscope images of Panc-1 cells treated with different dosages of FITC-PRTC. Scale bars, 10 μm.

[1] = molecular target: T1, endogenous CREPT protein in Panc-1 cells (Homo sapiens, UniProt Q9NQG5); experiment: Western blot of endogenous CREPT (degradation); format: cell-based; settings: 24 h incubation with 10 μM PRTC
T1 construct: endogenous protein level of CREPT in Panc-1, AsPc-1 and MIA-PaCa-2 cells; endogenous in cells; host or cells: Panc-1, AsPc-1, MIA PaCa-2
T1 sequence (Q9NQG5 1-326): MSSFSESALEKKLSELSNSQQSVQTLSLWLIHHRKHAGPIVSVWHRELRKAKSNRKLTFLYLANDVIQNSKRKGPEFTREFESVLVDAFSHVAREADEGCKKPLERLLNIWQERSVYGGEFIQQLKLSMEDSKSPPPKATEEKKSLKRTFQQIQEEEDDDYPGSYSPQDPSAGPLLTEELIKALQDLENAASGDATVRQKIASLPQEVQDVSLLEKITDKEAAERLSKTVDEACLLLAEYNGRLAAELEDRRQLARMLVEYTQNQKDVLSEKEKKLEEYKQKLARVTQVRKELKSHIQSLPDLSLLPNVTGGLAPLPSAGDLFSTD
Description: (§1) For exogenous immunoprecipitation assays, HEK293T cells were plated in 60 mm dishes and then transfected with the indicated plasmids. After 24 h, cells were harvested using RIPA buffer (50 mM Tris-HCl pH 8.0, 2 mM EDTA pH 8.0, 150 mM NaCl, 1% NP-40, 0.5% sodium deoxycholate, 0.1% SDS) with mixed protease inhibitors. Cell lysates were incubated with 2 μg of the indicated antibodies and 30 μL of protein A/G-Sepharose beads at 4 °C overnight. Beads were eluted five times with lysis buffer (50 mM Tris-HCl pH 7.6, 1 mM EDTA pH 8.0, 165 mM NaCl, 0.5% NP-40), and thereafter, a western blot assay was performed to analyze the association by using the indicated antibodies. Western blot was performed as previously reported. Anti-β-actin and anti-Flag antibodies were purchased from Sigma. Anti-Myc antibody was purchased from Santa Cruz Biotechnology. Antibody against CREPT was produced in the laboratory.
To address whether PRTC could induce CREPT degradation, we examined the endogenous protein level of CREPT in Panc-1, AsPc-1 and MIA-PaCa-2 cells in the presence of different dosages of PRTC. […] Consistently, treatment with PRTC led to decreases in CREPT protein at different times (Figure 5B, S3A). […] To further visualize the degradation process, we stained the endogenous CREPT protein with an antibody against CREPT in the cells treated with FITC-labeled PRTC.
Figure 5 PRTC induces the ubiquitination and proteasome- dependent degradation of the endogenous CREPT protein. (A) Immunoblot of CREPT following 24 h incubation with different dosages of PRTC or PRTC-m in Panc-1 cells. (B) Immunoblot of CREPT exposed to 10 μM PRTC or PRTC-m for different times in Panc-1 cells. (C) Western blot analysis of CREPT following 24 h incubation with 10 μM PTRC in Panc-1 cells. MG132 is an inhibitor of proteasome activity. (D) Immunofluorescence visualization of Panc-1 cells after treatment with PRTC for 24 h. Cells were stained with anti-CREPT antibody. Scale bars, 20 μm.

Myc-CREPT and Myc-CCT = experiment: Exogenous IP experiment in HEK293T cells; format: binding; settings: GST-tagged CREPT ligand
Description: as §1

Flag-CREPT = molecular target: T2, Flag-CREPT (Homo sapiens, UniProt Q9NQG5); experiment: GST pull-down; format: binding; settings: GST-tagged proteins purified from mammalian (HEK293T) cells
T2 construct: expressed in transfected cells; host or cells: HEK293T
T2 sequence (Q9NQG5 1-326): T1 sequence (Q9NQG5 1-326)
Description: HEK293T cells were plated in 100 mm dishes and then transfected with the indicated plasmids. After 24 h, cells were harvested using RIPA buffer with mixed protease inhibitors. Cell lysates were incubated with 30 μL of GST-tagged Sepharose beads and 10 μg of purified proteins from either E. coli or HEK293T cells at 4 °C overnight. Beads were eluted five times with lysis buffer. Western blot was performed using an antibody against GST (Cell Signaling Technology) to analyze the association.

## CC[C@H](C)[C@H](NC(=O)CCCCCNC(=S)Nc1ccc2c(c1)C(=O)OC21c2ccc(O)cc2Oc2cc(O)ccc21)C(=O)N[C@@H](Cc1ccc(O)cc1)C(=O)N1C[C@H](O)C[C@H]1C(=O)N[C@@H](C)C(=O)N[C@@H](CC(C)C)C(=O)NCCCCCC(=O)N[C@@H](CCCCN)C(=O)N[C@@H](CC(=O)O)C(=O)N[C@H](C(=O)N[C@@H](CC(C)C)C(=O)N[C@@H](CO)C(=O)N[C@@H](CCC(=O)O)C(=O)N[C@@H](CCCCN)C(=O)N[C@@H](CCC(=O)O)C(=O)N[C@@H](CCCCN)C(=O)N[C@@H](CCCCN)C(=O)N[C@@H](CC(C)C)C(=O)N[C@@H](CCC(=O)O)C(=O)N[C@@H](CCC(=O)O)C(=O)N[C@@H](Cc1ccc(O)cc1)C(=O)N[C@@H](CCCCN)C(=O)N[C@@H](CCC(N)=O)C(=O)N[C@@H](CCCCN)C(=O)N[C@@H](CC(C)C)C(=O)N[C@@H](C)C(=O)N[C@@H](CCCNC(=N)N)C(=O)N[C@H](C(=O)O)C(C)C)C(C)C [FITC-PRTC-r] ({FITC-Ahx}-IY[Hyp]AL[Ahx]KDVLSEKEKKLEEYKQKLARV-OH)
Panc-1 cells
  localization of FITC labeled peptides in the cells: very weak localization

## CC(C)C[C@@H](C=O)NC(=O)[C@H](CC(C)C)NC(=O)[C@H](CC(C)C)NC(=O)OCc1ccccc1 [MG132, reference compound] (Cbz-Leu-Leu-Leu-aldehyde)
[1]
  effect on PRTC-induced CREPT degradation: completely abolished

## FITC-AHX-IYP (OH) AL-AHX-KDVPSEKEKKPEEYKQKPARV-RRRRK [FITC-PRTC-m, FITC labeled PRTC-m]
Panc-1 cells
  localization of FITC labeled peptides in the cells: strong localization

## FITC-AHX-KDVLSEKEKKLEEYKQKLARV-RRRRK [FITC-PRTC-v, FITC labeled PRTC-v]
Panc-1 cells
  localization of FITC labeled peptides in the cells: strong localization

## GST-CL-m: GST protein tagged with CL-m (KDVPSEKEKKPEEYKQKPARV; also: GST tag, end not given here)
Myc-CREPT and Myc-CCT
  binding in exogenous IP: failed to bind
Flag-CREPT
  pull down of Flag-CREPT in vitro: lost the ability to associate
